Results reported in US9957325B2, “Synthetic antibody mimic peptides” (Formurex, Inc., priority 2015, dated 2018).
Where no end group is shown, it is not given here.

Legend:
Experiment in all cases: Flow cytometry of FITC labeled HER2 mimics
MDA-MB-361 cells = assay type: cell-based; settings: MDA-MB-361, 10 μM, 15 minutes
Procedure: (§1) Flow cytometric studies were carried out to quantify the fluorescence intensity of cells after being incubated with FITC labeled mimics. MDA-MB-361, ZR-75-1 and HEK293 cells were seeded in 6-well culture plates at a density of 3×10^5 cells per well for 24 hours and then incubated with FITC labeled mimics at a concentration of 10 μM in HBSS at 37° C. for 15 minutes. After washing with HBSS twice, cells remaining on the plates were trypsinized with Trpsin-EDTA and centrifuged at 1500 rpm for 5 min. Supernatant was removed and cell pellets were resuspended in 1 ml of HBSS. The suspension was transferred to a FACS Calibur™ flow cytometer and cell fluorescence was measured with high dynamic range photomultipliers with a 530 nm filter. Quantitative changes of fluorescence in different cells samples were assessed by mean fluorescence intensity (MFI), and FACS data were analyzed using BD CellQuest™ Pro software. Paired t-tests were used to determine statistical significance using the GraphPad Prism 5® Software. P-values less than or equal to 0.05 were considered to be statistically significant.

ZR-75-1 cells = assay type: cell-based; settings: ZR-75-1, 10 μM, 15 minutes
Procedure: as §1

HEK293 cells = assay type: cell-based, human; settings: HEK 293, 10 μM, 15 minutes
Procedure: as §1

FITC-HER2-PEP22: FITC labeled control peptide HER2-PEP22 (TSPQGYPNDAGFLGRESTN; not fully specified (N-terminus); also: FITC labeled)
MFI (MDA-MB-361 cells): 22.1±0.5 | MFI (ZR-75-1 cells): 19.6±3.2 | MFI (HEK293 cells): 14.7±1.7
